In publication PMC8449129, “Single tracer-based protocol for broad-spectrum kinase profiling in live cells with NanoBRET” (STAR Protocols, 2021):

Assays:
Assay in all cases: cell-based
Design in all cases: NanoBRET live-cell target engagement; % occupancy from displacement of tracer K10 on NanoLuc-kinase fusions, mean n=3
Settings in all cases: HEK293, read-out: % inhibition
CDKL1 = CDKL1 (Homo sapiens, UniProt Q00532)
How it was run: (§1)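 Live-cell NanoBRET target engagement: cells expressing kinase–NanoLuc fusion with tracer treated with compound 2 h at 37 °C, 5% CO2. BRET read from donor (450 nm) and acceptor (610/630 nm) emission with 20 μM extracellular NanoLuc inhibitor; % occupancy calculated relative to tracer+DMSO and zero-BRET controls.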

MAP4K1 = MAP4K1 (Homo sapiens, UniProt Q92918)
Chain of MAP4K1 (Q92918 whole entry): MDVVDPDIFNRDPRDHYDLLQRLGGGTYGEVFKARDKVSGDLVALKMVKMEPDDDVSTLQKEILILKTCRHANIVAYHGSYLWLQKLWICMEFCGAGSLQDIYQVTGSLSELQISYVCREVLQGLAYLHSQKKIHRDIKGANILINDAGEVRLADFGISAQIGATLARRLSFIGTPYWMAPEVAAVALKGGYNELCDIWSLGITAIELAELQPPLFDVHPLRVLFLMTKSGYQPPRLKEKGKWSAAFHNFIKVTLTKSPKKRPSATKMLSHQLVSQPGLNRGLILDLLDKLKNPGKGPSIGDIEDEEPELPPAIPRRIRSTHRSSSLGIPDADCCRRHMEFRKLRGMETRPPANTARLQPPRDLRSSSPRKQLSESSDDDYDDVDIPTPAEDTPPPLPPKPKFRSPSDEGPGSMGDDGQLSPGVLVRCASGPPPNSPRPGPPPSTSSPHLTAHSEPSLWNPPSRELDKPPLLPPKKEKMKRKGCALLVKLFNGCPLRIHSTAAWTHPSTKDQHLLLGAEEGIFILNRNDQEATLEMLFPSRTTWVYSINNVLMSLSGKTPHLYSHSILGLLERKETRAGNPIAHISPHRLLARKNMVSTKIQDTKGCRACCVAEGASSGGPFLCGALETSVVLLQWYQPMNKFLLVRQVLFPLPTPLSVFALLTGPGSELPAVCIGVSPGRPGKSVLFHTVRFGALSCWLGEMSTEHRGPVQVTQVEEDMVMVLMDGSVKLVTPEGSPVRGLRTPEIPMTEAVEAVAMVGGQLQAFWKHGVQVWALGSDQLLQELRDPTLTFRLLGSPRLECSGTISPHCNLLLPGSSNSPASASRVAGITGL
How it was run: as §1

TNK1 = TNK1 (Homo sapiens, UniProt Q13470)
How it was run: as §1

MAPK6 = MAPK6 (Homo sapiens, UniProt Q16659)
How it was run: as §1

SNRK = SNRK (Homo sapiens, UniProt Q9NRH2)
Chain of SNRK (Q9NRH2 whole entry): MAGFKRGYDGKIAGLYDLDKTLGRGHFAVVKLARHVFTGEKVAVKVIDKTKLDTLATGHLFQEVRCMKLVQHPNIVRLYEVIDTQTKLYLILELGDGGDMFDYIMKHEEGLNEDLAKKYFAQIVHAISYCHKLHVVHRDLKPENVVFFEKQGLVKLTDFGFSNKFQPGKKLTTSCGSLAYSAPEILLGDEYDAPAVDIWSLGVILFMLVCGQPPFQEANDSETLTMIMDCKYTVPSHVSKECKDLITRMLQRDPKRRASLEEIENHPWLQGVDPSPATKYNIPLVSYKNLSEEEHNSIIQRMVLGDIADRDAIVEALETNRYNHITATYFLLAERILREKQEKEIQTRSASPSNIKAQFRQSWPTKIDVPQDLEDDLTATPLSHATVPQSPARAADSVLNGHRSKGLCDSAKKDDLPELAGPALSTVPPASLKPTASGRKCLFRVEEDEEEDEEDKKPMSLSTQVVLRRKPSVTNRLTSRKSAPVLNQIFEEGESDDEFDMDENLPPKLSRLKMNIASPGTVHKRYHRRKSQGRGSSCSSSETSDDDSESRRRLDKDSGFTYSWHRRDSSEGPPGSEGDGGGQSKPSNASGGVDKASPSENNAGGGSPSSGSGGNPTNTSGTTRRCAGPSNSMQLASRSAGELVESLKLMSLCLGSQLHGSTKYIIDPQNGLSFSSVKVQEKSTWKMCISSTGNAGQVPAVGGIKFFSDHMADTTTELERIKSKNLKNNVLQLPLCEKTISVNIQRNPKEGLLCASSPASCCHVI
How it was run: as §1

PHKG2 = PHKG2 (Homo sapiens, UniProt P15735)
How it was run: as §1

CDK9 = CDK9 (Homo sapiens, UniProt P50750)
How it was run: as §1

ULK3 = ULK3 (Homo sapiens, UniProt Q6PHR2)
How it was run: as §1

GAK = GAK (Homo sapiens, UniProt O14976)
Chain of GAK (O14976 whole entry): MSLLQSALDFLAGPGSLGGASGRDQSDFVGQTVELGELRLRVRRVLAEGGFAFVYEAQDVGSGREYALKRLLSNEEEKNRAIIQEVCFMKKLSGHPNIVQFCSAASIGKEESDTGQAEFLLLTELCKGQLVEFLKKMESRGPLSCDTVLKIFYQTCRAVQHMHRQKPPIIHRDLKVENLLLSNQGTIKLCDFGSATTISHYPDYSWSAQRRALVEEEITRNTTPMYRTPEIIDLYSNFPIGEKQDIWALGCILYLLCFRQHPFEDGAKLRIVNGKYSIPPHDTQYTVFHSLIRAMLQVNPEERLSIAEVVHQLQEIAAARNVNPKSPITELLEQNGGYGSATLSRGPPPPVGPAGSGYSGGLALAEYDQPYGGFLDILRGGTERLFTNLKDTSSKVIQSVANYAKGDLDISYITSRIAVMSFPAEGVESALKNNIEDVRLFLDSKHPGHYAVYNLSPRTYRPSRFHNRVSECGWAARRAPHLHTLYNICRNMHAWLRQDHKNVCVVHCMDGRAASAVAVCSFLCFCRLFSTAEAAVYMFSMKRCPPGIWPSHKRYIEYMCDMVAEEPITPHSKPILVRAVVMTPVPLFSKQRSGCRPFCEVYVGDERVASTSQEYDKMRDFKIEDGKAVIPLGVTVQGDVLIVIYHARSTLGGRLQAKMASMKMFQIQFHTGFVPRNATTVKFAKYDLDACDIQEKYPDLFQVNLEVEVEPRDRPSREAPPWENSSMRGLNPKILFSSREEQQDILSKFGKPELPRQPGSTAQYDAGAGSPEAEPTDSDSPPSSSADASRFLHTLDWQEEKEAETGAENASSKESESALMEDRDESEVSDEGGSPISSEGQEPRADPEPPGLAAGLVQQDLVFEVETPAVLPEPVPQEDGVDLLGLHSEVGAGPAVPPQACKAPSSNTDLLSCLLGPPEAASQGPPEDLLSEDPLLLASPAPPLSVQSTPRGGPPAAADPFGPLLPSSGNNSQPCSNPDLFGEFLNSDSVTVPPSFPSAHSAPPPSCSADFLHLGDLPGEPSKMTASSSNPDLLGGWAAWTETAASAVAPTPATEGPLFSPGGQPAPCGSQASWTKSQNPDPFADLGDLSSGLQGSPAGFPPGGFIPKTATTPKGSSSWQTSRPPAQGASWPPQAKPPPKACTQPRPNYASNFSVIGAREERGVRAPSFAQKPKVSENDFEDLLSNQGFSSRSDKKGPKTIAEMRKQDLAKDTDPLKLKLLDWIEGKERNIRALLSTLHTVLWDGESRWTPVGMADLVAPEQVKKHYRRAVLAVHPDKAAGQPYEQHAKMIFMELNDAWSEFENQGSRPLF
How it was run: as §1

NEK5 = NEK5 (Homo sapiens, UniProt Q6P3R8)
How it was run: as §1

PLK2 = PLK2 (Homo sapiens, UniProt Q9NYY3)
Chain of PLK2 (Q9NYY3 whole entry): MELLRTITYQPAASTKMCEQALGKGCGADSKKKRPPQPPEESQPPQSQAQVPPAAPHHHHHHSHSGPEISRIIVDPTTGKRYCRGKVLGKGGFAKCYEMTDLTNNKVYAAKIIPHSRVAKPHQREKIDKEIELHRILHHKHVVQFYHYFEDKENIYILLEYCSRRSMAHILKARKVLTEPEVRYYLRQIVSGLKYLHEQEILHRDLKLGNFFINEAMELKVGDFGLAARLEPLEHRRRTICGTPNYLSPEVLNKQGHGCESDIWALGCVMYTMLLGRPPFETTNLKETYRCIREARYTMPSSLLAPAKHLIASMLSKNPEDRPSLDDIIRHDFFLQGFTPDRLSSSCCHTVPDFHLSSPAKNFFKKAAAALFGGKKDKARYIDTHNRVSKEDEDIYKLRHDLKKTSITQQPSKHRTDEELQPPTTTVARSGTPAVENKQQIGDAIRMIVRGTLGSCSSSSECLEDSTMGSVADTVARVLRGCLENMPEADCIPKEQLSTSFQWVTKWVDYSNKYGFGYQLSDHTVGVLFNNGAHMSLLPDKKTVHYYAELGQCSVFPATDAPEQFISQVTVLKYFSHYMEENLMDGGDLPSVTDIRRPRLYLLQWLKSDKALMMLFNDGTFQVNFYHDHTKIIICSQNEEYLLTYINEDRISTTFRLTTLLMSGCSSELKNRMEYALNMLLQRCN
How it was run: as §1

LATS1 = LATS1 (Homo sapiens, UniProt O95835)
Chain of LATS1 (O95835 whole entry): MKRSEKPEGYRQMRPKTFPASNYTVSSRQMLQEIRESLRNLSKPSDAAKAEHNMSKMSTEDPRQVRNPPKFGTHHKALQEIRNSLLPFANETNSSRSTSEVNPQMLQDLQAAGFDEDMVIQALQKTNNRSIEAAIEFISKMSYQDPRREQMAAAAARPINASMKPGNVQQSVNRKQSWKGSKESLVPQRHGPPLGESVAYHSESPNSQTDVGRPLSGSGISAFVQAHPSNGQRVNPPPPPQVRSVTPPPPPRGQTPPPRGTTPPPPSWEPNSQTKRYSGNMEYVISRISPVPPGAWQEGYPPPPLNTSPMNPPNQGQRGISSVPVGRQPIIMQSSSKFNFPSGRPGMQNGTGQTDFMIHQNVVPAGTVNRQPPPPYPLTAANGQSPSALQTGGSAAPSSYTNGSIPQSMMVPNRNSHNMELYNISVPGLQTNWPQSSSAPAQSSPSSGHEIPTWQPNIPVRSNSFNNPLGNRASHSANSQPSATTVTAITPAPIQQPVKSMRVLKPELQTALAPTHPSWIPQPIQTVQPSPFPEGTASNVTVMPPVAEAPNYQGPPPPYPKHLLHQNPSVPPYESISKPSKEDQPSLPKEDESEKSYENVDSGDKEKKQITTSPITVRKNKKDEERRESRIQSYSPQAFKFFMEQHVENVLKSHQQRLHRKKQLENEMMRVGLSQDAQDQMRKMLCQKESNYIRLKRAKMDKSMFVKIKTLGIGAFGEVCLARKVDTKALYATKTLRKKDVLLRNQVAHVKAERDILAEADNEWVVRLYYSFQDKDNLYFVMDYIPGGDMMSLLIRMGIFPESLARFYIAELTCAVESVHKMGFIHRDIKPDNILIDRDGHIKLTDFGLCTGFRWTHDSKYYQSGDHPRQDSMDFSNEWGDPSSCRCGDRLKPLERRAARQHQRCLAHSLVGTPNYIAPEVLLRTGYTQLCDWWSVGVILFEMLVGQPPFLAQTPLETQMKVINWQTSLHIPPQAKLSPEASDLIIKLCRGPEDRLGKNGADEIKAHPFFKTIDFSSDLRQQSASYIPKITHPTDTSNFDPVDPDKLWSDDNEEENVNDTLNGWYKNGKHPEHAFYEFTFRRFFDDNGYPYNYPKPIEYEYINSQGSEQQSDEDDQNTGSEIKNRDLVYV
How it was run: as §1

BMP2K = BMP2K (Homo sapiens, UniProt Q9NSY1)
How it was run: as §1

MYLK4 = MYLK4 (Homo sapiens, UniProt Q86YV6)
How it was run: as §1

HIPK2 = HIPK2 (Homo sapiens, UniProt Q9H2X6)
How it was run: as §1

RPS6KA2 = RPS6KA2 (Homo sapiens, UniProt Q15349)
How it was run: as §1

CSNK2A2 = CSNK2A2 (Homo sapiens, UniProt P19784)
Chain of CSNK2A2 (P19784 whole entry): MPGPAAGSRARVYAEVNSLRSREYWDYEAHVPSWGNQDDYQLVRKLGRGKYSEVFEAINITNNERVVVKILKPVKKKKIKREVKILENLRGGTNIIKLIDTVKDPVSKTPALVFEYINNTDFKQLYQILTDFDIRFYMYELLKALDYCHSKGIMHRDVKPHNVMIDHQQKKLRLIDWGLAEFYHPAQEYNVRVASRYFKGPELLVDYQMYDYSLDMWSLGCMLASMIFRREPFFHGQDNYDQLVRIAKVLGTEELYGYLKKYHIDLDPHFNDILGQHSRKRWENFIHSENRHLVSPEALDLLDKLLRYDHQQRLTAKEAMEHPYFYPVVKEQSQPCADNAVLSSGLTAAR
How it was run: as §1

CDK14 = CDK14 (Homo sapiens, UniProt O94921)
How it was run: as §1

- inhibition at 1 µM (CDKL1): 2%
- inhibition at 1 µM (MAP4K1): 14%
- inhibition at 1 µM (TNK1): -6%
- inhibition at 1 µM (MAPK6): 2%
- inhibition at 1 µM (SNRK): -4%
- inhibition at 1 µM (PHKG2): 3%
- inhibition at 1 µM (CDK9): 4%
- inhibition at 1 µM (ULK3): 2%
- inhibition at 1 µM (GAK): -14%
- inhibition at 1 µM (NEK5): -6%
- inhibition at 1 µM (PLK2): 4%
- inhibition at 1 µM (LATS1): -10%
- inhibition at 1 µM (BMP2K): 11%
- inhibition at 1 µM (MYLK4): -8%
- inhibition at 1 µM (HIPK2): 5%
- inhibition at 1 µM (RPS6KA2): -7%
- inhibition at 1 µM (CSNK2A2): -14%
- inhibition at 1 µM (CDK14): 0%
Compound: C[C@@H](Oc1cc(-c2cnn(C3CCNCC3)c2)cnc1N)c1c(Cl)ccc(F)c1Cl [crizotinib]
